According to patent publication US20090227600A1, “4-(PYRAZINE-2-YL) -PYRROLIDINE -2-CARBOXYLIC ACID COMPOUNDS AND DERIVATIVES THEREOF AS HEPATITIS C VIRUS INHIBITORS” (priority 2004, published 2009):

Experiments:
[1] = target: T1, HCV RNA Polymerase, recombinant full-length NS5B, genotype 1b (Hepatitis C virus genotype 1b, UniProt Q9WMX2); assay: In vitro HCV RNA-dependent RNA polymerase inhibition assay, genotype 1b full-length enzyme; type: biochemical, HCV genotype 1b; settings: genotype 1b full-length NS5B enzyme
T1 construct: Recombinant full-length NS5B; made in house
Protocol: Incorporation of [^33P]-GMP into RNA was followed by absorption of the biotin labelled RNA polymer by streptavidin containing SPA beads. A synthetic template consisting of biotinylated 13mer-oligoG hybridised to polyrC was used as a homopolymer substrate.
b) Genotype 1b Full-Length Enzyme
Reaction Conditions were 0.5 μM [^33P]-GTP (20 Ci/mMol), 1 mM Dithiothreitol, 20 mM MgCl2, 5 mM MnCl2, 20 mM Tris-HCl, pH7.5, 1.6 μg/mL polyC/0.256 μM biotinylated oligoG13, 10% glycerol, 0.01% NP-40, 0.2 u/μL RNasin and 50 mM NaCl.
HCV RNA Polymerase (Recombinant full-length NS5B (Lohmann et al, J. Virol. 71 (11), 1997, 8416. ‘Biochemical properties of hepatitis C virus NS5B RNA-dependent RNA polymerase and identification of amino acid sequence motifs essential for enzymatic activity’) expressed in baculovirus and purified to homogeneity) was added to 4 nM final concentration.
5× concentrated assay buffer mix was prepared using 1M MnCl2 (0.25 mL), glycerol (2.5 mL), 10% NP-40 (0.025 mL) and Water (7.225 mL), Total 10 mL.
2× concentrated enzyme buffer contained 1M-Tris-HCl, pH7.5 (0.4 mL), 5M NaCl (0.2 mL), 1M-MgCl2 (0.4 mL), glycerol (1 mL), 10% NP-40 (10 μL), 1M DTT (20 μL) and water (7.97 mL), Total 10 mL.
Substrate Mix was prepared using 5× Concentrated assay Buffer mix (4 μL), [^33P]-GTP (10 μCi/μL, 0.02 μL), 25 μM GTP (0.4 μL), 40 u/μL RNasin (0.1 μL), 20 μg/mL polyrC/biotinylated-oligoG (1.6 μL), and Water (3.94 μL), Total 10 μL.
Enzyme Mix was prepared by adding 1 mg/ml full-length NS5B polymerase (1.5 μL) to 2.81 mL 2×-concentrated enzyme buffer.
The Assay was set up using compound (1 μL), Substrate Mix (10 μL), and Enzyme Mix (added last to start reaction) (10 μL), Total 21 μL.
The reaction was performed in a U-bottomed, white, 96-well plate. The reaction was mixed on a plate-shaker, after addition of the Enzyme, and incubated for 1 h at 22° C. After this time, the reaction was stopped by addition of 40 μL 1.875 mg/ml streptavidin SPA beads in 0.1 M EDTA. The beads were incubated with the reaction mixture for 1 h at 22° C. after which 120 μL 0.1 M EDTA in PBS was added. The plate was sealed, mixed centrifuged and incorporated radioactivity determined by counting in a Trilux (Wallac) or Topcount (Packard) Scintillation Counter.
After subtraction of background levels without enzyme, any reduction in the amount of radioactivity incorporated in the presence of a compound, compared to that in the absence, was taken as a measure of the level of inhibition. Ten concentrations of compounds were tested in three- or fivefold dilutions. From the counts, percentage of inhibition at highest concentration tested or IC50s for the compounds were calculated using GraFit 3, GraFit 4 or GraFit 5 (Erithacus Software Ltd.) software packages or a data evaluation macro for Excel based on XLFit Software (IDBS).

[2] = tested on: Huh-7 HCV replicon cells (sub-line 5-15; genotype 1b); assay: Replicon ELISA cell based assay, genotype 1b; set-up: species or system HCV genotype 1b; settings: Hepatitis C virus, Huh-7 genotype 1b replicon (sub-line 5-15), 72 hours
Protocol: 100 μL of medium containing 10% FCS were added to each well of clear, flat-bottomed 96 well microplates, excepting wells in the top row. Test compound was diluted in assay medium to twice the final required starting concentration from a 40 mM stock solution in DMSO. 200 μL of the starting dilution were introduced into two wells each in the top row and doubling dilutions made down the plate by the sequential transfer of 100 μL aliquots with thorough mixing in the wells; the final 100 μL were discarded. The two bottom rows were not used for compound dilutions. Huh-7 HCV replicon cell monolayers nearing confluency were stripped from growth flasks with versene-trypsin solution and the cells were resuspended in assay medium at either 2×10^5 cells/mL (sub-line 5-15; genotype 1b; Lohmann, V., Komer, F., Koch, J-O., Herian, U., Thielmann, L. And Bartenschlager, R., 1999, Science, 285, pp 110-113) or at 3×10^5 cells/mL (genotype 1a; Gu, B., Gates, A. T., Isken, O., Behrens, S. E. and Sarisky, R. T., J. Virol., 2003, 77, 5352-5359). 100 μL of cell suspension were added to all wells and the plates incubated at 37° C. for 72 hours in a 5% CO2 atmosphere.
Following incubation, the assay medium was aspirated from the plates. The cell sheets were washed by gentle immersion in phosphate buffered saline (PBS), which was then aspirated off, and fixed with acetone:methanol (1:1) for 5 minutes. Following a further wash with PBS, 100 μL of ELISA diluent (PBS+0.05% v/v Tween 20+2% w/v skimmed milk powder) were added to all wells and the plates incubated at 37° C. for 30 minutes on an orbital platform. The diluent was removed and each well then received 50 μL of a 1/200 dilution of anti-HCV specific, murine, monoclonal antibody (either Virostat #1872 or #1877), except for wells in one of the compound-free control rows which received diluent alone to act as negative controls. The plates were incubated at 37° C. for 2 hours and washed 3 times with PBS/0.05% Tween 20, then 50 μL of horseradish peroxidase conjugated, anti-mouse, rabbit polyclonal serum (Dako #P0260), diluted 1/1000, were added to all wells. The plates were incubated for a further hour, the antibody removed and the cell sheets washed 5 times with PBS/Tween and blotted dry. The assay was developed by the addition of 50 μL of ortho-phenylenediamine/peroxidase substrate in urea/citrate buffer (SigmaFast, Sigma #P-9187) to each well, and colour allowed to develop for up to 15 minutes. The reaction was stopped by the addition of 25 μL per well of 2 M sulphuric acid and the plates were read at 490 nm on a Fluostar Optima spectrophotometer.
The substrate solution was removed and the plates were washed in tap water, blotted dry and the cells stained with 5% carbol fuchsin in water for 30 minutes. The stain was discarded and the cell sheets washed, dried and examined microscopically to assess cytotoxicity.
The absorbance values from all compound-free wells that had received both primary and secondary antibodies were averaged to obtain a positive control value. The mean absorbance value from the compound-free wells that had not received the primary antibody was used to provide the negative (background) control value. The readings from the duplicate wells at each compound concentration were averaged and, after the subtraction of the mean background from all values, were expressed as a percentage of the positive control signal. The quantifiable and specific reduction of expressed protein detected by the ELISA in the presence of a drug can be used as a measure of replicon inhibition. GraFit software was used to plot the curve of percentage inhibition against compound concentration and derive the 50% inhibitory concentration (IC50) for the compound.

T1 sequence (Q9WMX2 2420-3010): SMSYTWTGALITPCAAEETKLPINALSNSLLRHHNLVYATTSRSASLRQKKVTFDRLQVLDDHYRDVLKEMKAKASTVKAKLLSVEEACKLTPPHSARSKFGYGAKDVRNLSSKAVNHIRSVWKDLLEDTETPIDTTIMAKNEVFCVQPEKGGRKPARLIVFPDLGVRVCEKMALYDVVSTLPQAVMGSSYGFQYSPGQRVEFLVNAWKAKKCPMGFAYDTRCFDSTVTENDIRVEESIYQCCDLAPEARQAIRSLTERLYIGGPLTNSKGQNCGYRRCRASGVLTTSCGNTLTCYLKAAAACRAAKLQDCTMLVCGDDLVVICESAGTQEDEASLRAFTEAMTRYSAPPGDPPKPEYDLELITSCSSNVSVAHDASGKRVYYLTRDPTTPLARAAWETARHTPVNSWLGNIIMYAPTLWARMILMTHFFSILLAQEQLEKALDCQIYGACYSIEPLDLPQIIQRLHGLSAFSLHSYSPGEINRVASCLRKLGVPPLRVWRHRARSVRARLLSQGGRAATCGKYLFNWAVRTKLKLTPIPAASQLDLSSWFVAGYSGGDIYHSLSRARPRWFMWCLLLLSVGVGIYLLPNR

SMILES	IC50 [1]	IC50 [2]
COc1cc(C(=O)N2[C@@H](c3ncc(C)s3)[C@@H](c3cnccn3)C[C@@]2(Cc2nccs2)C(=O)O)ccc1C(C)(C)C (racemic) [Example 13, rel-(2R,4S,5R)-1-(3-Methoxy-4-tert-butylbenzoyl)-5-(5-methyl-1,3-thiazol-2-yl)-4-(pyrazin-2-yl)-2-(1,3-thiazol-2-ylmethyl)pyrrolidine-2-carboxylic acid]	< 100 nM	< 100 nM
COc1cc(C(=O)N2[C@@H](c3ncc(C)s3)[C@@H](c3cnccn3)C[C@@]2(Cc2cscn2)C(=O)O)ccc1C(C)(C)C (racemic) [Example 15, rel-(2R,4S,5R)-1-(3-Methoxy-4-tert-butylbenzoyl)-5-(5-methyl-1,3-thiazol-2-yl)-4-(pyrazin-2-yl)-2-(1,3-thiazol-4-ylmethyl)pyrrolidine-2-carboxylic acid]	< 100 nM	< 100 nM
COc1cc(C(=O)N2[C@@H](c3nccs3)[C@@H](c3cnccn3)C[C@@]2(CC(C)C)C(=O)O)ccc1C(C)(C)C (single isomer, unassigned; enantiomer a) [Compound B, reference compound]	> 500 nM	100 to 10000 nM
COc1cc(C(=O)N2[C@@H](c3nccs3)[C@@H](c3cnccn3)C[C@@]2(Cc2cscn2)C(=O)O)ccc1C(C)(C)C (single isomer, unassigned; enantiomer a) [Example 2]	< 100 nM	< 100 nM
COc1cc(C(=O)N2[C@@H](c3nccs3)[C@@H](c3cnccn3)C[C@@]2(Cc2nccs2)C(=O)O)ccc1C(C)(C)C (single isomer, unassigned; enantiomer a) [Example 4]	< 100 nM	< 100 nM
COc1cc(C(=O)N2[C@@H](c3ncc(C)s3)[C@@H](c3cnccn3)C[C@@]2(Cc2ccsn2)C(=O)O)ccc1C(C)(C)C (single isomer, unassigned; enantiomer a) [Example 6]	< 100 nM	< 100 nM
COc1cc(C(=O)N2[C@@H](c3nccs3)[C@@H](c3cnccn3)C[C@@]2(Cc2ccsn2)C(=O)O)ccc1C(C)(C)C (single isomer, unassigned; enantiomer a) [Example 8]	< 100 nM	< 100 nM
COc1cc(C(=O)N2[C@@H](c3ncc(C)s3)[C@@H](c3cnccn3)C[C@@]2(Cn2cccn2)C(=O)O)ccc1C(C)(C)C (single isomer, unassigned; enantiomer a) [Example 10]	< 100 nM	< 100 nM
COc1cc(C(=O)N2[C@@H](c3nccs3)[C@@H](c3cnccn3)C[C@@]2(Cn2cccn2)C(=O)O)ccc1C(C)(C)C (single isomer, unassigned; enantiomer a) [Example 12]	< 100 nM	< 100 nM
COc1cc(C(=O)N2[C@@H](c3ncc(C)s3)[C@@H](c3cnccn3)C[C@@]2(Cc2nccs2)C(=O)O)ccc1C(C)(C)C (single isomer, unassigned; enantiomer a) [Example 14]	< 100 nM	< 100 nM
COc1cc(C(=O)N2[C@@H](c3ncc(C)s3)[C@@H](c3cnccn3)C[C@@]2(Cc2cscn2)C(=O)O)ccc1C(C)(C)C (single isomer, unassigned; enantiomer a) [Example 16]	< 100 nM	< 100 nM
